Results from PubChem BioAssay (NCI).
“And” between values parts separate entries of the source, which are not always exact repeats. Identical values can stand only once.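 Compound exposure: 48 hours, 5 concentrations, 96-well plates. GI50 = concentration required for 50% inhibition of growth. At the TGI there is no net growth.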

Columns and labels:
Experiment in all cases: NCI tumour cell line growth inhibition, 48 h
[1] = tested on: BT-549 breast
[2] = tested on: HCC-2998 colon
[3] = tested on: HS 578T breast
[4] = tested on: HT29 colon
[5] = tested on: M14 melanoma
[6] = tested on: MCF7 breast
[7] = tested on: RPMI-8226 leukemia
[8] = tested on: SF-295 CNS
[9] = tested on: SK-MEL-5 melanoma
[10] = tested on: SNB-75 CNS

Compound | GI50 [1] [µM] | TGI [1] [µM] | GI50 [2] [µM] | TGI [2] [µM] | GI50 [3] [µM] | TGI [3] | GI50 [4] [µM] | TGI [4] [µM] | GI50 [5] [µM] | TGI [5] [µM] | GI50 [6] [µM] | TGI [6] | GI50 [7] [µM] | TGI [7] [µM] | GI50 [8] [µM] | TGI [8] [µM] | GI50 [9] [µM] | TGI [9] [µM] | GI50 [10] [µM] | TGI [10] [µM]
C=C(C)[C@@H]1CCC2=C[C@@H](OC2=O)[C@@H](C(=C)C)C(=O)/C=C(/C)C(=O)C1 | 44.8 | > 100 | 26.2 | 62.2 | 35.1 | > 100 µM | 41.8 | > 100 | 20.8 | 50.5 | 35.3 | > 100 µM | 1.76 | 17.1 | 35.9 | > 100 | 18.6 | 39.4 | > 100 | > 100
CCOC(=O)C1=C(C)NC2SC(=O)/C(=C\c3ccccc3)N2C1c1ccccc1 (centres undefined) | > 100 | > 100 | > 100 | > 100 | > 100 | > 100 µM | > 100 | > 100 | > 100 | > 100 | > 100 | > 100 µM | 33.5 | > 100 | > 100 | > 100 | 16.1 | > 100 | > 100 | > 100
COc1cc([C@@H]2c3cc4c(cc3[C@H](O)[C@H]3COC(=O)[C@H]23)OCO4)cc(OC)c1OC | < 0.01 |  | < 0.005 |  | < 0.01 | > 100 µM and 50 µM and > 94 µM | < 0.01 |  | < 0.005 |  | < 0.01 | > 100 µM and 10.3 µM | < 0.01 |  | < 0.01 |  |  | 0.0477 | < 0.005 | 
CC1OC(OC2CC(O)C3(CO)C4C(O)CC5(C)C(C6=CC(=O)OC6)CCC5(O)C4CCC3(O)C2)C(O)C(O)C1O (centres undefined) | < 0.0129 | 0.0208 | 0.0606 | 0.204 | < 0.0155 | 0.304 µM | < 0.0147 | 0.102 | 0.0212 | 0.0784 | < 0.0163 | 0.29 µM | 0.0167 | 0.206 | < 0.0138 | 0.0291 | < 0.0151 | 0.0267 |  | 0.099
CCOC(=O)C(=O)N=Nc1nc2c(O)c3ccccc3c(O)c2s1 |  | 22.9 |  | 28.6 |  | 10.5 µM |  | 35 |  | 4.7 |  | 30.4 µM |  | > 19.9 |  | 12.3 |  | 3.62 |  | 9.02
COc1cccc(C2C3=C(COC3=O)N(CCO)c3cc4c(cc32)OCCO4)c1 (centres undefined) | 0.255 | > 10.9 | 0.0957 | 0.242 | 0.114 | 22.1 µM | 0.124 | 1.34 | 0.052 | 0.19 | 0.0396 | > 50 µM | 0.0564 |  | 0.0389 |  | 0.0474 | 1.23 | 0.0722 | 0.424
CC[CH2][Sn]([Cl])([Cl])[CH2]CC | 7.87 | 20.5 | 10.1 | 22 | 6.13 | 28.4 µM | 14.4 | 30.9 | 11.1 | 24.1 | 3.27 | 16.5 µM | 2.03 | 7.77 | 17.2 | 33.4 | 10.6 | 22.6 | 6.24 | 20.1
COC(=O)Nc1nc2cc3c(cc2s1)OCCO3 | > 50 | > 50 | > 50 | > 50 | > 50 | > 50 µM | > 50 | > 50 | > 50 | > 50 | > 50 | > 50 µM | > 50 | > 50 | > 50 | > 50 | > 50 | > 50 | > 50 | > 50
OC(COc1cccc2ccccc12)CN1CCN(c2ccccc2)CC1 (centres undefined) | 17.9 | 32.2 | 16.5 | 30.7 | 15.8 | 47.3 µM | 15 | 30 | 15.5 | 29.7 | 17.3 | 31.9 µM | 17 | 42.9 | 12.6 | 26.6 | 15.9 | 29.9 | 13.7 | 27.2
COc1ccc(-c2cc(/C=C3\C(=O)Nc4ccc(OC)cc43)[nH]n2)cc1 | > 100 | > 100 | > 100 | > 100 | 16.8 | > 100 µM | 1.58 | > 100 | > 100 | > 100 | 0.732 | > 100 µM | > 100 | > 100 | 2.89 | > 100 | 4.46 | > 100 | 3.19 | 25.5
N#Cc1c(-c2ccccc2)cc(-c2ccccc2)n(CCCCC(=O)NO)c1=O | 3.65 | 16.4 | 2.65 | 10.8 | 2.03 | 8.18 µM | 3.51 | 13.4 | 2.76 | 11.6 | 1.79 | 11 µM | 1.57 | 4.61 | 2.13 | 4.56 | 1.84 | 3.59 | 1.61 | 9.07
